Laboratory results taken from ChEMBL document CHEMBL6127035, “Novel pyridazinone derivatives bind to KSRP: Synthesis, anti-tumor biological evaluations and modelling insights” (Eur J Med Chem, 2024).
Calls of active or inactive are those of the source. The rule behind the calls is not given here.

Legend:
[1] = Cytotoxicity against human L02 cells assessed as reduction in cell viability incubated for 2 days by MTT assay; type: toxicity, cell-based
MCF7 [2] = test: Antitumor activity against human MCF7 cells xenografted in BALB/C-nu/nu mouse model assessed as increase in gamma-H2AX expression at 20 to 30 mg/kg, iv administered every other day for 15 days by immunohistochemical analysis; type: functional, organism-based; conditions: dose 20-30 mg/kg, time 15.0 day
MCF7 [3] = test: Induction of morphological changes in human MCF7 cells assessed as cell membrane blebbing at 10 uM measured after 6 hrs by bright field microscopic; type: functional, cell-based
MCF7 [4] = test: Inhibition of colony formation in human MCF7 cells assessed as reduction in colony count incubated for 2 weeks by crystal violet staining based analysis; type: functional, cell-based; conditions: dose 1.25-2.5 µM
MCF7 [5] = test: Antitumor activity against human MCF7 cells xenografted in BALB/C-nu/nu mouse model assessed as decrease in tumor growth at 20 to 30 mg/kg, iv administered every other day for 15 days; type: functional, organism-based; conditions: dose 20-30 mg/kg, time 15.0 day
HCT-116 = test: Antiproliferative activity against human HCT-116 cells assessed as reduction in cell viability incubated for 2 days by MTT assay; type: functional, cell-based; conditions: HCT-116, 48 h
[6] = molecular target: T1, Far upstream element-binding protein 2 (Homo sapiens) (UniProt Q92945); test: Binding affinity to recombinant full-length KSRP (unknown origin) by SPR analysis
T1 sequence (whole entry): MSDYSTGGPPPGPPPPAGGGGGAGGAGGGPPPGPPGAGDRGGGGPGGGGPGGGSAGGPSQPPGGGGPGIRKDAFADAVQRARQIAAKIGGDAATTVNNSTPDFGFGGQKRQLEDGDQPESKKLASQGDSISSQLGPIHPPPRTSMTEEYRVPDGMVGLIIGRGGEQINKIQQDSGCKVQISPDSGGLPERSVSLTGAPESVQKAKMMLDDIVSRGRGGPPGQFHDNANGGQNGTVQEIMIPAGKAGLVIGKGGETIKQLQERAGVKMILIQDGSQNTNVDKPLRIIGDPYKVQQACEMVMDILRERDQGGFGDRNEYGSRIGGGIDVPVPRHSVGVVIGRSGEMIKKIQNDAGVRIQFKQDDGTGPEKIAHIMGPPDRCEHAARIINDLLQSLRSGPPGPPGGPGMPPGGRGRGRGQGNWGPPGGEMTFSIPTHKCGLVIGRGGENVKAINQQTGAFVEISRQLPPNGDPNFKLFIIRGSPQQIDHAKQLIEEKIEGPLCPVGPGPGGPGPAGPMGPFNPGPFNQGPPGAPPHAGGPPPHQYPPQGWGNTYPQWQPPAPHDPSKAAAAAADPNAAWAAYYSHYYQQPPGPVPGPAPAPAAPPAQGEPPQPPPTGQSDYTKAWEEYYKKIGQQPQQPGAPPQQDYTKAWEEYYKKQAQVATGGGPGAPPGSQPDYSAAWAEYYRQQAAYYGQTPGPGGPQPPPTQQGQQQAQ

MCF7 [7] = test: Induction of apoptosis in human MCF7 cells assessed as late apoptotic cells at 0.62 uM incubated for 48 hrs by Annexin V-FITC/PI staining based flow cytometric analysis (reference value: 5.31 %); type: functional
[8] = Toxicity in BALB/C-nu/nu mouse xenografted with human MCF7 cells assessed as histopathological lesions in spleen at 20 to 30 mg/kg, iv administered every other day for 15 days by H and E staining based analysis; type: organism-based; conditions: in vivo, 360 h, dose 20-30 mg/kg, time 15 day
NCI-H460 = test: Antiproliferative activity against human NCI-H460 cells assessed as reduction in cell viability incubated for 2 days by MTT assay; type: functional, cell-based; conditions: NCI-H460, 48 h
MCF7 [9] = test: Induction of DNA double-strand breaks in human MCF7 cells assessed as enlarged nucleus at 10 uM incubated for 24 hrs by Hoechst 33342 staining based fluorescence microscopic analysis; type: functional, cell-based
MDA-MB-231 [10] = test: Inhibition of colony formation in human MDA-MB-231 cells assessed as reduction in colony count incubated for 2 weeks by crystal violet staining based analysis; type: functional, cell-based
MCF7 [11] = test: Induction of apoptosis in human MCF7 cells assessed as viable cells at 0.62 uM incubated for 48 hrs by Annexin V-FITC/PI staining based flow cytometric analysis (reference value: 87.2 %); type: functional; conditions: read-out: Activity
MCF7 [12] = test: Antitumor activity against human MCF7 cells xenografted in BALB/C-nu/nu mouse model assessed as inhibition of Ki-67 expression level at 20 to 30 mg/kg, iv administered every other day for 15 days by immunohistochemical analysis; type: functional, organism-based; conditions: dose 20-30 mg/kg, time 15.0 day
[13] = Toxicity in BALB/C-nu/nu mouse xenografted with human MCF7 cells assessed as histopathological lesions in heart at 20 to 30 mg/kg, iv administered every other day for 15 days by H and E staining based analysis; type: organism-based; conditions: in vivo, 360 h, dose 20-30 mg/kg, time 15 day
[14] = Toxicity in BALB/C-nu/nu mouse xenografted with human MCF7 cells assessed as histopathological lesions in lung at 20 to 30 mg/kg, iv administered every other day for 15 days by H and E staining based analysis; type: organism-based; conditions: in vivo, 360 h, dose 20-30 mg/kg, time 15 day
Mitochondrial membrane = test: Induction of mitochondrial membrane potential loss in human MCF7 cells assessed as increase in green fluorescence at 10 uM incubated for 24 hrs by JC-1 staining based automated microscopic immunofluorescence analysis; type: cell membranes
U-87 MG = test: Antiproliferative activity against human U-87 MG cells assessed as reduction in cell viability incubated for 2 days by MTT assay; type: functional, cell-based, U-87MG ATCC; conditions: 48 h
MCF7 [15] = test: Induction of apoptosis in human MCF7 cells assessed as early apoptotic cells at 0.62 uM incubated for 48 hrs by Annexin V-FITC/PI staining based flow cytometric analysis (reference value: 6.33 %); type: functional
4T1 = test: Antiproliferative activity against mouse 4T1 cells assessed as reduction in cell viability incubated for 2 days by MTT assay; type: functional, cell-based; conditions: 4T1, 48 h
MDA-MB-231 [16] = test: Antiproliferative activity against human MDA-MB-231 cells assessed as reduction in cell viability incubated for 2 days by MTT assay; type: functional, cell-based; conditions: MDA-MB-231, 48 h
[17] = Toxicity in BALB/C-nu/nu mouse xenografted with human MCF7 cells assessed as histopathological lesions in liver at 20 to 30 mg/kg, iv administered every other day for 15 days by H and E staining based analysis; type: organism-based; conditions: in vivo, 360 h, dose 20-30 mg/kg, time 15 day

With `CN(CCO)S(=O)(=O)c1ccc(-n2ncc(Cl)c(Cl)c2=O)cc1` the IC50 at 2 days [1] was 8340 nM, the Activity (MCF7 [2]) was “Active” and the Activity (MCF7 [3]) was “Active”. The inhibition (MCF7 [4]) was “Dose-Dependent Effect”, the Activity (MCF7 [5]) was “Active” and the IC50 (HCT-116) was 780 nM. The Activity [6] was “Dose-Dependent Effect”, the Activity (MCF7 [7]) was 6.63% and the Activity [8] was “Non-Toxic”. The IC50 (NCI-H460) was 1020 nM, the Activity (MCF7 [9]) was “Active” and the inhibition (MDA-MB-231 [10]) was “Active”. For the same compound, the viability at 0.62 µM (MCF7 [11]) was 84.5%, the Activity (MCF7 [12]) was “Active” and the Activity [13] was “Non-Toxic”. The Activity [14] was “Non-Toxic”, the Activity (Mitochondrial membrane) was “Active” and the IC50 (U-87 MG) was 400 nM. The Activity (MCF7 [15]) was 7.62%, the IC50 (4T1) was 1230 nM and the IC50 (MDA-MB-231 [16]) was 8350 nM. For the same compound, the Activity [17] was “Non-Toxic”.
